Some test systems named below: BT-549 breast; CCRF-CEM leukemia; M14 melanoma; MALME-3M melanoma; MDA-MB-435; NCI-H522 lung; TK-10 renal; U251 CNS; UACC-257 melanoma; UO-31 renal.
Assay in all cases: NCI tumour cell line growth inhibition, 48 h

Structures are written as SMILES.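 Values below derive from 48-hour exposures of cells grown in 96-well plates, with endpoints linearly interpolated between the two concentrations bracketing the appropriate inhibition level. GI50 marks 50% less growth. TGI marks complete inhibition of growth.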

Take `Cc1cccc(Cl)c1NC(=O)c1cnc(Nc2cc(N3CCOCC3)cc(N3CCOCC3)c2)s1`: the GI50 in the assay with BT-549 breast is above 4.46 µM; in the assay with CCRF-CEM leukemia it was above 6.27 µM; with M14 melanoma, 4.18 µM; in the assay with MALME-3M melanoma it was above 4.82 µM; in the assay with MDA-MB-435, 4.08 µM; with NCI-H522 lung, 0.0307 µM. The GI50 in the assay on TK-10 renal is 0.00622 µM; with U251 CNS it was above 3.85 µM; with UACC-257 melanoma, above 7.93 µM; in the assay with UO-31 renal it was 0.0067 µM. Besides, the TGI is above 10 µM with BT-549 breast; above 10 µM in the assay on CCRF-CEM leukemia; above 10 µM in the assay with M14 melanoma; above 10 µM in the assay with MALME-3M melanoma; above 10 µM in the assay on MDA-MB-435; above 5.79 µM in the assay with NCI-H522 lung. The TGI was 0.0729 µM with TK-10 renal, above 10 µM with U251 CNS, above 10 µM in the assay on UACC-257 melanoma and 0.789 µM with UO-31 renal.

In the case of `Cc1cc([N+](=O)[O-])ccc1NS(=O)(=O)c1cc(Cl)ccc1Cl`, the GI50 with BT-549 breast was 2.48 µM; in the assay with CCRF-CEM leukemia it was 3.47 µM; in the assay on M14 melanoma it was 3.66 µM; with MALME-3M melanoma it was 2.33 µM; in the assay on MDA-MB-435 it was 2.77 µM; in the assay on NCI-H522 lung, 2.44 µM. The GI50 in the assay on TK-10 renal is 3.54 µM; with U251 CNS, 2.9 µM; in the assay on UACC-257 melanoma, 2.02 µM; with UO-31 renal, 2.97 µM. The TGI with BT-549 breast is 14 µM; in the assay on CCRF-CEM leukemia, above 72.4 µM; in the assay with M14 melanoma it was 33.4 µM; in the assay on MALME-3M melanoma it was 6.83 µM; with MDA-MB-435, 36.6 µM; in the assay with NCI-H522 lung, 8.68 µM. In addition, the TGI with TK-10 renal amounted to 75.2 µM; in the assay with U251 CNS, 17.4 µM; in the assay on UACC-257 melanoma, 7.55 µM; in the assay with UO-31 renal, 17 µM.

With `O=C1c2cc(-c3ccccc3)ccc2-c2c1c1ccc([N+](=O)[O-])cc1c(=O)n2CCCBr`, the GI50 was above 50 µM in the assay on BT-549 breast; 0.16 µM in the assay on CCRF-CEM leukemia; above 50 µM in the assay on M14 melanoma; above 50 µM in the assay with MDA-MB-435; above 50 µM with NCI-H522 lung; 17.5 µM in the assay with TK-10 renal. The GI50 was above 31.9 µM with U251 CNS, above 50 µM in the assay with UACC-257 melanoma and above 50 µM in the assay with UO-31 renal. Also, the TGI in the assay with BT-549 breast is above 50 µM; with CCRF-CEM leukemia it was 0.6 µM; with M14 melanoma it was above 50 µM; in the assay on MALME-3M melanoma, above 43.4 µM; in the assay with MDA-MB-435, above 50 µM; with NCI-H522 lung it was above 50 µM. Besides, the TGI in the assay with TK-10 renal, in the assay with U251 CNS, with UACC-257 melanoma and with UO-31 renal was above 50 µM each time.

Turning to `COc1cc(F)cc([C@@H](CO)NC(=O)[C@@H](C)N2Cc3ccc(-c4nc(NC5CCOCC5)ncc4Cl)cc3C2=O)c1`, the GI50 in the assay with BT-549 breast is 5.43 µM; with CCRF-CEM leukemia it was 17.1 µM; with M14 melanoma it was below 0.01 µM; in the assay on MALME-3M melanoma, below 0.01 µM; with MDA-MB-435, 0.0347 µM; with NCI-H522 lung it was 13.4 µM. Besides, the GI50 in the assay on TK-10 renal is 0.0624 µM; in the assay with U251 CNS, 8.72 µM; with UACC-257 melanoma it was below 0.01 µM; in the assay with UO-31 renal, 0.406 µM. Also, the TGI with BT-549 breast was 24.3 µM; with CCRF-CEM leukemia it was above 92.8 µM; with M14 melanoma, 0.962 µM; in the assay on MALME-3M melanoma, below 0.01 µM; in the assay on MDA-MB-435, 31.8 µM; with NCI-H522 lung, 60.4 µM. In addition, the TGI was above 76.8 µM in the assay on TK-10 renal, above 100 µM in the assay on U251 CNS, 0.0367 µM in the assay on UACC-257 melanoma and 33.6 µM in the assay with UO-31 renal.

`COc1c2c(c(CC=C(C)C)c3oc(=O)c(-c4ccc(O)cc4)c(O)c13)OC(C)(C)C=C2`: the TGI in the assay with BT-549 breast was above 100 µM; in the assay on CCRF-CEM leukemia, 76.8 µM; with M14 melanoma, 73.3 µM; in the assay on MALME-3M melanoma, 70.2 µM; in the assay with MDA-MB-435, 45.7 µM; with NCI-H522 lung it was 62.9 µM. Further, the TGI was above 100 µM in the assay with TK-10 renal, 27.8 µM with U251 CNS, above 100 µM in the assay on UACC-257 melanoma and above 100 µM in the assay on UO-31 renal.

`C[C@@H](NC(=O)[C@@H](CC(=O)N1CCC(N2CCCCC2)CC1)N1C(=O)[C@@H](N2C(=O)OC[C@@H]2c2ccccc2)[C@H]1/C=C/c1cccc(Cl)c1)c1ccccc1`: the GI50 in the assay on BT-549 breast was 5.14 µM; with CCRF-CEM leukemia, 2.73 µM; in the assay on M14 melanoma it was 1.75 µM; with MALME-3M melanoma, 1.68 µM; with MDA-MB-435, 1.64 µM; in the assay on NCI-H522 lung, 1.79 µM. Besides, the GI50 in the assay on TK-10 renal is 1.92 µM; in the assay with U251 CNS, 2.03 µM; in the assay with UACC-257 melanoma, 1.93 µM; with UO-31 renal it was 2.03 µM. Besides, the TGI in the assay on BT-549 breast was found to be 18 µM; in the assay with CCRF-CEM leukemia, 7.93 µM; with M14 melanoma it was 3.37 µM; with MALME-3M melanoma it was 3.3 µM; in the assay on MDA-MB-435, 3.17 µM; in the assay on NCI-H522 lung it was 4.14 µM. Moreover, the TGI was found to be 4.76 µM with TK-10 renal, 4.06 µM in the assay on U251 CNS, 3.84 µM in the assay with UACC-257 melanoma and 5.35 µM with UO-31 renal.

Consider `Cc1cc(Oc2cnc(=O)[nH]c2)cs1`, for which the TGI with BT-549 breast, in the assay on CCRF-CEM leukemia, in the assay on M14 melanoma, in the assay on MALME-3M melanoma, with MDA-MB-435 and with NCI-H522 lung was above 100 µM in each case. Moreover, the TGI with TK-10 renal, in the assay with U251 CNS, in the assay on UACC-257 melanoma and with UO-31 renal was above 100 µM throughout.

On to `Clc1cccc(N2CCN(CCN3CCc4c([nH]c5ccccc45)C3c3cccnc3)CC2)c1` (centres undefined), for which the TGI in the assay with BT-549 breast, in the assay with CCRF-CEM leukemia, in the assay on M14 melanoma, in the assay with MALME-3M melanoma, in the assay on MDA-MB-435 and in the assay on NCI-H522 lung was above 100 µM each time. Moreover, the TGI with TK-10 renal, in the assay with U251 CNS, with UACC-257 melanoma and in the assay on UO-31 renal was above 100 µM in each case.

For the compound `O=C1C(Cl)=C(Nc2cccc(O)c2)C(=O)N1Cc1ccc(Cl)cc1`, the GI50 is 2.54 µM with BT-549 breast; 2.98 µM in the assay with CCRF-CEM leukemia; 4.43 µM in the assay on M14 melanoma; 0.464 µM in the assay with MALME-3M melanoma; 1.22 µM in the assay on MDA-MB-435; 3.18 µM with NCI-H522 lung. Besides, the GI50 was 5.86 µM with TK-10 renal, 1.86 µM with U251 CNS, 8.18 µM in the assay on UACC-257 melanoma and 10.3 µM in the assay with UO-31 renal. The TGI in the assay on BT-549 breast was 16.6 µM; in the assay on CCRF-CEM leukemia it was above 100 µM; in the assay on M14 melanoma, 23.2 µM; with MALME-3M melanoma, 8.11 µM; with MDA-MB-435 it was 10.1 µM; in the assay with NCI-H522 lung, 21.7 µM. Besides, the TGI with TK-10 renal was 19.8 µM; in the assay with U251 CNS, 26.9 µM; in the assay with UACC-257 melanoma, 25 µM; in the assay with UO-31 renal, above 100 µM.

For the compound `Cn1c(/C=C(\C#N)c2cccc(C(F)(F)F)c2)nc2c(N3CCOCC3)nc(Cl)nc21`, the GI50 with BT-549 breast is 0.569 µM; in the assay with CCRF-CEM leukemia it was 0.23 µM; with M14 melanoma it was 0.733 µM; in the assay on MALME-3M melanoma it was 1.39 µM; in the assay with MDA-MB-435 it was 1.02 µM; with NCI-H522 lung it was 0.657 µM. The GI50 is 1.72 µM in the assay with TK-10 renal, 1.32 µM in the assay with U251 CNS, 1.37 µM in the assay with UACC-257 melanoma and 0.422 µM in the assay with UO-31 renal. For the same compound, the TGI in the assay on BT-549 breast worked out at 1.96 µM; with CCRF-CEM leukemia, 0.75 µM; in the assay on M14 melanoma, 2.08 µM; in the assay on MALME-3M melanoma it was 2.79 µM; in the assay with MDA-MB-435, 2.43 µM; in the assay on NCI-H522 lung, 2.32 µM. Besides, the TGI with TK-10 renal is 3.14 µM; in the assay with U251 CNS, 2.73 µM; in the assay on UACC-257 melanoma, 2.89 µM; in the assay on UO-31 renal, 1.84 µM.

For the compound `O=C1NC(=O)C(c2ccc(Cl)cc2)=C1Nc1ccc(Cl)c(C(=O)O)c1`, the GI50 in the assay on BT-549 breast, in the assay with CCRF-CEM leukemia, in the assay on M14 melanoma, in the assay on MALME-3M melanoma, in the assay on MDA-MB-435 and in the assay on NCI-H522 lung was above 25 µM in each case. The GI50 in the assay on TK-10 renal, with U251 CNS, with UACC-257 melanoma and in the assay on UO-31 renal was above 25 µM throughout. For the same compound, the TGI in the assay on BT-549 breast, with CCRF-CEM leukemia, in the assay on M14 melanoma, with MALME-3M melanoma, with MDA-MB-435 and in the assay on NCI-H522 lung was above 25 µM each time. Further, the TGI with TK-10 renal, with U251 CNS, in the assay on UACC-257 melanoma and with UO-31 renal was above 25 µM throughout.

Turning to `C[n+]1c2ccccc2c(Nc2ccc(NS(=O)(=O)CCCCN=C(N)N)cc2)c2ccc(N)cc21`, the GI50 in the assay with BT-549 breast was 35.2 µM; in the assay on CCRF-CEM leukemia, 0.303 µM; in the assay with M14 melanoma, 4.14 µM; in the assay with MALME-3M melanoma, 4.06 µM; in the assay on MDA-MB-435 it was 20.4 µM; in the assay with NCI-H522 lung, 2.03 µM. Moreover, the GI50 in the assay with TK-10 renal was 6.47 µM; with U251 CNS, 0.22 µM; in the assay on UACC-257 melanoma, 21.7 µM; with UO-31 renal, 6.5 µM. Further, the TGI in the assay on BT-549 breast was above 100 µM; in the assay with CCRF-CEM leukemia, above 35.9 µM; in the assay with M14 melanoma, above 100 µM; with MALME-3M melanoma, 35.2 µM; with MDA-MB-435, above 100 µM; in the assay on NCI-H522 lung, 25.6 µM. Moreover, the TGI with TK-10 renal is 58.3 µM; in the assay with U251 CNS it was 54 µM; with UACC-257 melanoma, above 95.6 µM; in the assay on UO-31 renal, above 100 µM.
